# Data from patent US20150038430A1, “THERAPEUTIC PEPTIDOMIMETIC MACROCYCLES” (AILERON Therapeutics, Inc., priority 2008, published 2015).
# Numbered stars: 1 amine (or outer) side, 2 acyl side, 3 side chain; on linkers, the order of the positions; unused ones are H or OH. Bridge positions count the residues as written; N and C are the ends. Square brackets hold non-standard residues; d marks the D form. Peptide text beside a SMILES is read from it. ξ: configuration not given here. ξαMeNle(6-ylidene) = CC(CCCC=[*:3])(N[*:1])C(=O)[*:2]; Nle = CCCC[C@H](N)C(=O)O
# Columns and labels:
# [1] = system: H-460; experiment: MTT cell viability assay, H-460; type: cell-based, human; conditions: 20 μM, MTT 48 hrs, FIG. 1
# Protocol: (§1) Cell viability assays shown in FIGS. 1-32 were performed according to the following protocol. Tumor cell lines were grown in specific serum-supplemented media (growth media) as necessary. A day prior to the initiation of the study, cells were plated at optimal cell density (15,000 to 25,000 cells/well) in 200 μl growth media in microtiter plates. The next day, cells were washed twice in serum-free/phenol red-free RPMI complete media (assay buffer) and a final volume of 100 μl assay buffer was added to each well. Human peripheral blood lymphocytes (hPBLs) were isolated from Buffy coats (San Diego Blood Bank) using Ficoll-Paque gradient separation and plated on the day of the experiment at 25,000 cells/well.
# (§2) Peptidomimetic macrocycles were diluted from 1 mM stocks (100% DMSO) in sterile water to prepare 400 μM working solutions. The peptidomimetic macrocycles and controls were then diluted 10 or […] or alternatively serially two-fold diluted in assay buffer in dosing plates to provide concentrations of either 40 and 20 μM or between 1.2 and 40 μM, respectively. […]
# (§3) Towards the end of the 4 hour incubation time, 22 μl FBS was added to each well for a total concentration of 10% FBS. […] At the end of the incubation period, MTT assay was performed according to manufacturer's instructions (Sigma, catalog #M2128) and absorbance was measured at 560 nm using Dynex Opsys MR Plate reader. […]
# [2] = system: activated hPBLs; experiment: BrdU cell proliferation assay; type: cell-based, human; conditions: hPBLs activated by PMA+ionomycin+LPS; 5 or 20 μM, 48 hrs; compared with 1 μM Rapamycin
# Protocol: […] 1 μM Rapamycin was used as a positive control to inhibit BrdU incorporation. BrdU incorporation was assayed by ELISA according to manufacturer's instructions (Roche, catalog number 11444611001).
# [3] = system: A-549; experiment: MTT cell viability assay, A-549; type: cell-based, human; conditions: 20 μM, MTT 48 hrs, FIG. 1
# Protocol: as §1, §2, §3
# [4] = system: NCI-H220; experiment: MTT cell viability assay, NCI-H220; type: cell-based, human; conditions: 20 μM, MTT 48 hrs, FIG. 1
# Protocol: as §1, §2, §3
# [5] = target: Bcl-xL (Homo sapiens, UniProt Q07817); experiment: Kd, μM | Bcl-xL
# From the text: Table printed on a drawing sheet, Figure 27
# Head of the field: Kd, μM | Bcl-xL
# Where the first naming reader finds the target: head: Kd, μM | Bcl-xL
# [6] = system: NCI-H146; experiment: MTT cell viability assay, NCI-H146; type: cell-based, human; conditions: 20 μM, MTT 48 hrs, FIG. 1
# Protocol: as §1, §2, §3
# [7] = system: U251; experiment: MTT cell viability assay, U251; type: cell-based, human; conditions: 20 μM, MTT 48 hrs, FIG. 1
# Protocol: as §1, §2, §3
# [8] = system: SEMK2 human leukemia xenograft; experiment: SEMK2 human leukemia xenograft model; type: in vivo, NOD-SCID mice; conditions: daily tail vein injection, 3, 10 or 30 mg/Kg/day
# Protocol: To determine the anti-oncogenic activity of peptidomimetic macrocycles of the invention in vivo, the compounds are, for example, given alone (IP, IV, SC, PO, by inhalation or nasal routes) or in combination with sub-optimal doses of relevant chemotherapy (e.g., cyclophosphamide, doxorubicin, etoposide). In one example, 5×10^6 SEMK2 cells (established from the bone marrow of a patient with acute lymphoblastic leukemia) that stably express luciferase are injected by tail vein in NOD-SCID, SCID-beige or NOD.IL2rg KO mice 3 hrs after they have been subjected to total body irradiation. Non-radiated mice may also be used for these studies. If left untreated, this form of leukemia is fatal in 3 weeks in this model. The leukemia is readily monitored, for example, by injecting the mice with D-luciferin (60 mg/kg) and imaging the anesthetized animals (e.g., Xenogen In Vivo Imaging System, Caliper Life Sciences, Hopkinton, Mass.). Total body bioluminescence is quantified by integration of photonic flux (photons/sec) by Living Image Software (Caliper Life Sciences, Hopkinton, Mass.). […] Optionally, the mice are imaged throughout the experiment every other day and survival monitored daily for the duration of the experiment. […]
# Sequence of Bcl-xL (Q07817 whole entry, looked up): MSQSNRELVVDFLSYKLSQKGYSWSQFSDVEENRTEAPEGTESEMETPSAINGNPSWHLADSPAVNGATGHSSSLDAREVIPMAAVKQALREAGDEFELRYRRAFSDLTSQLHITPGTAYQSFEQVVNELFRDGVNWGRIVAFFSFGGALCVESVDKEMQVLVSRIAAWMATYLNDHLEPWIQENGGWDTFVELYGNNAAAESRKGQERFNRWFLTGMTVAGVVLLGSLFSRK
compound,measurement,setting,value
CCCC[C@H](NC(=O)C1(C)CCCC=CCCCC(C)(NC(=O)[C@H](C)NC(=O)[C@H](CC(C)C)NC(=O)[C@H](Cc2c[nH]cn2)NC(=O)[C@H](CCCNC(=N)N)NC(=O)[C@H](C)NC(=O)[C@@H](NC(=O)[C@H](CC(N)=O)NC(=O)[C@H](CCCNC(=N)N)NC(=O)[C@@H](NC(=O)[C@@H](NC(=O)[C@H](CC(=O)O)NC(C)=O)[C@@H](C)CC)[C@@H](C)CC)[C@@H](C)CC)C(=O)N[C@@H](C(C)C)C(=O)NCC(=O)N[C@@H](CC(=O)O)C(=O)N1)C(=O)N[C@@H](CC(=O)O)C(=O)N[C@@H](CCCNC(=N)N)C(=O)N[C@@H](CO)C(=O)N[C@H](C(N)=O)[C@@H](C)CC (some centres unmarked) [SP-1] (Ac-DIIRNIARHLA[ξαMeNle(6-ylidene)]VGD[ξαMeNle(6-ylidene)][Nle]DRSI-NH2; staple 12-16),sensitivity of H-460 (NSCLC),[1],resistant
same,blocking the proliferation of activated hPBLs (BrdU incorporation),[2],as effective as rapamycin
same,sensitivity of A-549 (NSCLC),[3],resistant
same,apoptosis of NCI-H220 (SCLC),[4],induced apoptosis
same,Kd,[5],< 0.1 µM
same,apoptosis of NCI-H146 (SCLC),[6],induced apoptosis
same,sensitivity of U251 (glioma),[7],resistant
same,tumor burden / tumor progression (total body bioluminescence),[8],decreases tumor burden
